Results published in article PMC7462607 (eLife, 2020).
“And” between values parts separate entries of the source, which are not always exact repeats. Equal entries are not always repeated. Where two headings read alike, the source gives them in different places.

How the values were obtained:
[1] = target: T1, CDK13 kinase domain/CCNK-3xHA (Homo sapiens, UniProt Q14004); assay: Co-expression of 3xFLAG-CDK13 kinase domain with CCNK-3xHA; type: cell-based; conditions: 293T, HQ461 8 hr; not with G709E or G709R
T1 construct: ORFs encoding residues 715–1052 of CDK12 and residues 693–1030 of CDK13; expressed in transfected cells; host or cells: 293T
T1 sequence (O75909 whole entry, the tested form may be a part): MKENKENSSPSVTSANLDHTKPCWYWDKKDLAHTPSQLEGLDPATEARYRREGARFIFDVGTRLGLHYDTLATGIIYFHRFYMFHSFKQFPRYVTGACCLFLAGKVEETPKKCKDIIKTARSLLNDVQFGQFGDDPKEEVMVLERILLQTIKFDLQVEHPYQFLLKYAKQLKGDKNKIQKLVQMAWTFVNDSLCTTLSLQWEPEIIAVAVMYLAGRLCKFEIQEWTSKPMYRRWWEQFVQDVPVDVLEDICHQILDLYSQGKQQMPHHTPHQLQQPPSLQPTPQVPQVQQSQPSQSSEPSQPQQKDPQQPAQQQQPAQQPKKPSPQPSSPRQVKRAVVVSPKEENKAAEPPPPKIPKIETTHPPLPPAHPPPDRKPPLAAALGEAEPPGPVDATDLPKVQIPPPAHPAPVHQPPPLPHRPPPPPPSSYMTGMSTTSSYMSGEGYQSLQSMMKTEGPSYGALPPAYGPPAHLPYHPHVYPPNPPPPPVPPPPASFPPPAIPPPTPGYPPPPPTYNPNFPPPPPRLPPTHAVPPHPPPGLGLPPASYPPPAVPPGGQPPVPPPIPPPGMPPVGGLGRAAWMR
T1 sequence (Q14004 693-1030): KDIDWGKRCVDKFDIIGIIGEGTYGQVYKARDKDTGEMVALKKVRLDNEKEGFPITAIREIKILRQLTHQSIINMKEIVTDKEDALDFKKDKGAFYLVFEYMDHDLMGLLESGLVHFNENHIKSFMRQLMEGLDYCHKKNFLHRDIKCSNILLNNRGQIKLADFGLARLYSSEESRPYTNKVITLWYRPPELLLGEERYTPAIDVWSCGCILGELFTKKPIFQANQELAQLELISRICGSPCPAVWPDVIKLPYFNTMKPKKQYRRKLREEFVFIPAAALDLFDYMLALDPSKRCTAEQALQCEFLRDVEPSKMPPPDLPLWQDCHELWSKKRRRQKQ
T1 sequence (Q16531 2-1140, further chain): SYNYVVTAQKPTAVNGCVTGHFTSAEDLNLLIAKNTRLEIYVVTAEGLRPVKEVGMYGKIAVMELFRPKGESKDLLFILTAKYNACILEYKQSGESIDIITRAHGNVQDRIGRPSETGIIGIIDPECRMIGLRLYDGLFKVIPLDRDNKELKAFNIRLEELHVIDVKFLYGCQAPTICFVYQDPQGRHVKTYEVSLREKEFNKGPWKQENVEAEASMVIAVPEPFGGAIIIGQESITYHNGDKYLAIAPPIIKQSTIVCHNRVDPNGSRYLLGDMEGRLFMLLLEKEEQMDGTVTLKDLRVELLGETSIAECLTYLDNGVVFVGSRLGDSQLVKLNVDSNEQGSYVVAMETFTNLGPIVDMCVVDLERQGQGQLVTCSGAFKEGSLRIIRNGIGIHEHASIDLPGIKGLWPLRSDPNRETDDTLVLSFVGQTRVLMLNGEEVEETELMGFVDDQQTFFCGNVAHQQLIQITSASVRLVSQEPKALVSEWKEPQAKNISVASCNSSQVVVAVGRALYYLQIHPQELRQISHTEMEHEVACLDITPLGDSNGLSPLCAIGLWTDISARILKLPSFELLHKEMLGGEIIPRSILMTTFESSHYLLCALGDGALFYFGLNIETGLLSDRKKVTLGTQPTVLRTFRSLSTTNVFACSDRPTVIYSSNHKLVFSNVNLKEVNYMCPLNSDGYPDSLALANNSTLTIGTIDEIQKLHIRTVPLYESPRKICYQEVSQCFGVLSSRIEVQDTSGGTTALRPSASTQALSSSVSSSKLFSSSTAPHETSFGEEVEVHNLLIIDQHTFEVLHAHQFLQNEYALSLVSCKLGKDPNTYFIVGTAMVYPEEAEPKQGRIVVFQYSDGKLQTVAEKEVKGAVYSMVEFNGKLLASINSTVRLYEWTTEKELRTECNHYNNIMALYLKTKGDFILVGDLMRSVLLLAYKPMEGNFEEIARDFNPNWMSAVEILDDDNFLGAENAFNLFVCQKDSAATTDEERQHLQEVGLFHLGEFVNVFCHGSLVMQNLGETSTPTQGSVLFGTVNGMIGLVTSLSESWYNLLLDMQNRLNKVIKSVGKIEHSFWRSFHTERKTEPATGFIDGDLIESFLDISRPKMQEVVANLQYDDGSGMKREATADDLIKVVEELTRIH
Method: ORFs encoding residues 715–1052 of CDK12 and residues 693–1030 of CDK13 were cloned into a pCDNA3.1-N-3xFLAG vector. For setting up cells for co-transfection, 0.6 million 293 T cells were seeded per well in 6-well tissue-culture plates and allowed to attach to plates overnight. These cells were then transfected with 50 ng of pCDNA3.1-3xFLAG-CDK12/13 kinase domain, 50 ng of pCDNA3.1-CCNK-3xHA, and 400 ng of the empty pCDNA3.1 vector. Twenty-four hours post transfection, cells were treated with HQ461 for 8 hr, and lysates were collected for western blotting with anti-FLAG and anti-HA antibodies.

[2] = tested on: A549 cells expressing sgRNAs (NTC, DDB1, RBX1, UBE2G1); assay: Cell viability assay, A549 cells expressing non-targeting control or sgRNAs targeting DDB1, RBX1 or UBE2G1; type: cell-based, Homo sapiens; conditions: for CellTiter-Glo (ATP): raw signal; for IC50: Homo sapiens
Method: Seven hundred A549 cells or 1,000 HCT-116 cells in 50 µL of medium were plated per well in 384-well flat clear bottom white polystyrene TC-treated microplates (Corning, Corning, USA). After overnight attachment, cells were dosed with a serial dilution of HQ461 with a D300e digital dispenser (Tecan, Männedorf, Switzerland). Cell survival was measured 72 hr later using CellTiter-Glo luminescent cell viability assay kit (Promega, Madison, USA) following vendor instructions. Luminescence was recorded by EnVison multimode plate reader (PerkinElmer, Waltham, USA). IC50 was determined with GraphPad Prism using baseline correction (by normalizing to DMSO control), the asymmetric (five parameter) equation, and least squares fit.
Two sgRNAs per gene were chosen from the Brunello library for DDB1 (5’-[…]-3’ and 5’-[…]-3’), RBX1 (5’- […]-3’ and 5’-[…]-3’), and UBE2G1 (5’-[…]-3’ and 5’- […]-3’). Annealed sgRNA oligos were cloned into the lentiCRISPR v2 vector. Lentiviral packaging was performed by co-transfecting the resulting plasmids with psPAX2 (Addgene 12260) and pMD2.G (Addgene 12259) into 293 T cells. Media collected from transfected 293 T cells was used to infect A549 cells at MOI ~ 5 for 4 days. The resulting cells were tested for their sensitivity to HQ461 using methods describe in the previous session cell viability assay.

CCNK = assay: Western blotting of CCNK protein level in A549 cells; type: cell-based, Homo sapiens
Method: Standard SDS-PAGE and western blotting procedures were used with the following modifications. For preparation of total lysates, cells were rinsed with DPBS to remove residual medium and then lysed in 20 mM HEPES-NaOH, pH 8.0, 10 mM NaCl, 2 mM MgCl2, 1% SDS freshly supplemented with 0.5 units/µL of benzonase and 1x cOmplete, Mini, EDTA-free protease inhibitor cocktail (Roche, Bazel, Switzerland). Protein concentrations of the resulting lysates were quantified by the BCA method. Between 30 to 60 µg of proteins were resolved on SDS-PAGE and transferred to nitrocellulose membranes with a pore size of 0.5 μm. Membranes were blocked in 5% nonfat milk PBST (0.1% v/v Tween-20) for 30 min before blotting with antibodies. The following primary antibodies were used by dilution in 5% nonfat milk PBST: anti-NRF2 (Abcam, Cambridge, UK, ab62352, 1:4,000), anti-β-Actin-HRP (Huaxingbio, Beijing, China, HX18271,1:10,000), anti-α-Tubulin-HRFP (MBL Life Science, Japan, PM054-7, 1:10,000), anti-DDB1 (Abcam, Cambridge, UK, ab109027, 1:10,000), anti-RBX1 (Proteintech, Wuhan, China, 14895–1-AP, 1:5,000), anti-UBE2G1 (Proteintech, Wuhuan, China, 12012–1-AP, 1:2,000), anti-CDK12 (Cell Signaling Technology, Danvers, USA, 11973S,1:4,000), anti-CCNK (Bethyl lab, Montgomery, USA, A301-939A-T,1:4,000), anti-FLAG-HRP (Sigma-Aldrich, MO, USA, A8592, 1:10,000), anti-HA (BioLegend, San Diego, USA, 901533, 1:4,000), anti-RNA polymerase II subunit B1 (phospho CTD Ser-2) clone 3E10 (Sigma-Aldrich, MO, USA, 04–1571, 1:5,000), and anti-RNA polymerase II CTD repeat YSPTSPS antibody clone 8WG16 (Abcam, Cambridge, UK, ab817, 1:5,000). The following HRP-linked secondary antibodies were used by dilution in PBST: anti-rabbit IgG (Cell Signaling Technology, Danvers, USA, 7074S, 1:10,000), anti-mouse IgG (Zsbio, Beijing, China, ZB-2305, 1:10,000), and anti-rat IgG, (Sino Biological, Beijing, China, SSA005, 1:10,000). M5 HiPer ECL Western HRP Substrate (Mei5bio, Beijing, China, MF074-01) was used for the detection of HRP enzymatic activity. Western blot images were taken with a VILBER FUSION FX7 imager.

For `Cc1cccc(Nc2nc(CC(=O)Nc3ncc(C)s3)cs2)n1` [HQ461, 2-(2-((6-methylpyridin-2-yl)amino)thiazol-4-yl)-N-(5-methylthiazol-2-yl)acetamide], the “CCNK degradation with co-expressed wild-type CDK13 kinase domain” value [1] was “sufficient for mediating HQ461-dependent degradation of CCNK”, the “CellTiter-Glo (ATP)” value ([2]; A549 sgDDB1-1, HQ461 1.04e-6 M) was 266440 and 262730 and 269540 and the “CellTiter-Glo (ATP)” value ([2]; A549 sgDDB1-1, HQ461 1.84e-6 M) was 260200 and 241370 and 247600. The “CellTiter-Glo (ATP)” value ([2]; A549 sgDDB1-1, HQ461 5e-5 M) was 103060 and 118120 and 131920, the “CellTiter-Glo (ATP)” value ([2]; A549 sgDDB1-1, HQ461 1.16E-07 M) was 267930 and 251180 and 224010 and the “CellTiter-Glo (ATP)” value ([2]; A549 sgDDB1-1, HQ461 2.04E-07 M) was 317680 and 266950 and 274210. For the same compound, the “CellTiter-Glo (ATP)” value ([2]; A549 sgDDB1-1, HQ461 3.52E-07 M) was 250370 and 237750 and 246820, the “CellTiter-Glo (ATP)” value ([2]; A549 sgDDB1-1, HQ461 6.08E-07 M) was 264740 and 257780 and 224550 and the “CellTiter-Glo (ATP)” value ([2]; A549 sgDDB1-1, HQ461 6.80E-08 M) was 250520 and 230710 and 232990. The “CellTiter-Glo (ATP)” value ([2]; A549 sgNTC, HQ461 1.04e-6 M) was 250120 and 267660 and 292550, the “CellTiter-Glo (ATP)” value ([2]; A549 sgNTC, HQ461 1.84e-6 M) was 177290 and 247760 and 214770 and the “CellTiter-Glo (ATP)” value ([2]; A549 sgNTC, HQ461 2.88e-5 M) was 34040. For the same compound, the “CellTiter-Glo (ATP)” value ([2]; A549 sgNTC, HQ461 5e-5 M) was 18410 and 24360 and 23900, the “CellTiter-Glo (ATP)” value ([2]; A549 sgNTC, HQ461 1.16E-07 M) was 358110 and 293700 and 340660 and the “CellTiter-Glo (ATP)” value ([2]; A549 sgNTC, HQ461 2.04E-07 M) was 291450 and 300990 and 265430. For the same compound, the “CellTiter-Glo (ATP)” value ([2]; A549 sgNTC, HQ461 3.52E-07 M) was 289350 and 289810 and 317840, the “CellTiter-Glo (ATP)” value ([2]; A549 sgNTC, HQ461 6.08E-07 M) was 260230 and 280040 and 269860 and the “CellTiter-Glo (ATP)” value ([2]; A549 sgNTC, HQ461 6.80E-08 M) was 322880 and 295000 and 291440. The “CellTiter-Glo (ATP)” value ([2]; A549 sgRBX1-1, HQ461 1.04e-6 M) was 306380 and 286480 and 313050, the “CellTiter-Glo (ATP)” value ([2]; A549 sgRBX1-1, HQ461 1.84e-6 M) was 225540 and 237470 and 230500 and the “CellTiter-Glo (ATP)” value ([2]; A549 sgRBX1-1, HQ461 5e-5 M) was 43060 and 31790 and 35930. For the same compound, the “CellTiter-Glo (ATP)” value ([2]; A549 sgRBX1-1, HQ461 1.16E-07 M) was 288560 and 290760 and 286800, the “CellTiter-Glo (ATP)” value ([2]; A549 sgRBX1-1, HQ461 2.04E-07 M) was 262410 and 264720 and 241220 and the “CellTiter-Glo (ATP)” value ([2]; A549 sgRBX1-1, HQ461 3.52E-07 M) was 292190 and 292940 and 303380. For the same compound, the “CellTiter-Glo (ATP)” value ([2]; A549 sgRBX1-1, HQ461 6.08E-07 M) was 295780 and 267950 and 240730, the “CellTiter-Glo (ATP)” value ([2]; A549 sgRBX1-1, HQ461 6.80E-08 M) was 297310 and 267380 and 272530 and the “CellTiter-Glo (ATP)” value ([2]; A549 sgUBE2G1-1, HQ461 1.04e-6 M) was 312980 and 335750 and 320370. For the same compound, the “CellTiter-Glo (ATP)” value ([2]; A549 sgUBE2G1-1, HQ461 1.84e-6 M) was 297250 and 326340 and 338010, the “CellTiter-Glo (ATP)” value ([2]; A549 sgUBE2G1-1, HQ461 2.88e-5 M) was 51820 and 43500 and 48750 and the “CellTiter-Glo (ATP)” value ([2]; A549 sgUBE2G1-1, HQ461 5e-5 M) was 35610 and 27850 and 21460. For the same compound, the “CellTiter-Glo (ATP)” value ([2]; A549 sgUBE2G1-1, HQ461 1.16E-07 M) was 299870 and 310810 and 340290, the “CellTiter-Glo (ATP)” value ([2]; A549 sgUBE2G1-1, HQ461 2.04E-07 M) was 303360 and 350750 and 286460 and the “CellTiter-Glo (ATP)” value ([2]; A549 sgUBE2G1-1, HQ461 3.52E-07 M) was 341410 and 309550 and 308880. For the same compound, the “CellTiter-Glo (ATP)” value ([2]; A549 sgUBE2G1-1, HQ461 6.08E-07 M) was 297850 and 310080 and 327760, the “CellTiter-Glo (ATP)” value ([2]; A549 sgUBE2G1-1, HQ461 6.80E-08 M) was 296160 and 325630 and 360740 and the IC50 ([2]; A549, independent second sgRNA, Figure 1-figure supplement 2D, read-out: IC50 on the viability of A549 cells expressing sgRNA targeting DDB1) was > 28.8 µM. For the same compound, the IC50 ([2]; A549, independent second sgRNA, Figure 1-figure supplement 2D, read-out: IC50 on the viability of A549 cells expressing sgRNA targeting RBX1) was 11 µM, the IC50 ([2]; A549, independent second sgRNA, Figure 1-figure supplement 2D, read-out: IC50 on the viability of A549 cells expressing sgRNA targeting UBE2G1) was 13.6 µM and the IC50 ([2]; A549, sgDDB1, Figure 1D, read-out: IC50 on the viability of A549 cells expressing sgRNA targeting DDB1) was > 28.8 µM. It also gave an IC50 ([2]; A549, sgNTC, Figure 1D, read-out: IC50 on the viability of A549 cells expressing non-targeting control (NTC)) of 2.3 µM, an IC50 ([2]; A549, sgRBX1, Figure 1D, read-out: IC50 on the viability of A549 cells expressing sgRNA targeting RBX1) of 10.9 µM and an IC50 ([2]; A549, sgUBE2G1, Figure 1D, read-out: IC50 on the viability of A549 cells expressing sgRNA targeting UBE2G1) of 11.9 µM. For the same compound, the “reduction of the CCNK protein level” value (CCNK; A549, 4 hr treatment) was > 8 fold and the “CCNK protein level in cells with CDK12 G731E or G731R mutation” value (CCNK; A549 CDK12 G731E/G731R cells) was “not affected”.
